Compared with `CCOCCCNC(=O)Nc1ccccc1CCc1cc(C(C)(C)C)c(O)c(C(C)(C)C)c1`, `Cc1cc(SC2=C(O)CC(CCc3csc(CO)c3)(C(C)C)OC2=O)c(C(C)(C)C)cc1CO` (centres undefined) is lower in melting point: 136 to 137 °C for the first, 76 to 80 °C for the second.

First: CC1CC(=O)NN=C1c1ccc2c(c1)OCC(=O)N2 (centres undefined)
Second: O=C1Nc2ccccc2CC(C(=O)Nc2ccc(Br)cc2)C1=O (centres undefined)
The melting point of the first is higher: greater than 300 °C for the first, 226 to 228 °C for the second.

Compared with `c1cc(-c2ccc(-c3cn([C@H]4CN5CCC4CC5)nn3)s2)ccc1CN1CCCCC1`, `O=C1CCn2cc(C(=O)NCc3ccc(Cl)cc3)c(=O)c3cc(CN4CCOCC4)cc(c32)N1` is higher in melting point: 230 °C for the first, 235 to 240 °C for the second.

First: O=C1c2ccccc2-n2cnc(C=NO)c2[C@@H]2CCCN12
Second: CC(C)(C)OC(=O)N1CCC(n2c(=O)[nH]c3ccccc32)CC1
The melting point of the first is higher: 285 °C for the first, 161 to 163 °C for the second.

First: COc1ccc(CN(CC(=O)O)c2nc(NC(=O)Nc3ccccc3OC)nc(Nc3ccccc3-c3ccccc3)n2)cc1
Second: c1ccc(CN2CCc3[nH]c4cc(-c5ccccc5)ccc4c3CC2)cc1
The melting point of the first is lower: 147 to 149 °C for the first, 176 to 177 °C for the second.

Compared with `CCOC(=O)c1csnc1-c1ccc(OC)c(OC)c1`, `CCOC(=O)CCc1ccc(OC(C)C)nc1Oc1ccc(Cl)cc1Cl` is lower in melting point: 74 to 75.5 °C for the first, 42.5 to 43.5 °C for the second.

First: CCCc1c(OCCCCC(=O)N(C)C)ccc(C(C)=O)c1O
Second: COc1ccc(C(=O)O)c2cccc(S(=O)(=O)N(C)C)c12
The melting point of the first is lower: 95 to 97 °C for the first, 220 to 221 °C for the second.

Compared with `CCCCCCCCCCCCS(=O)(=O)c1c(O)cc(C)oc1=O`, `Cc1nc(CCOCCCCCCNCC(O)c2cc(Cl)c(N)c(Cl)c2)cs1` (centres undefined) is lower in melting point: 78 to 79 °C for the first, 67 to 69 °C for the second.

First: Nc1nnc(-c2ccc(C(F)(F)F)cc2)cc1C(F)(F)F
Second: CCOC(=O)C(=O)Nc1ccc(Cl)c(C(F)(F)F)c1
The melting point of the first is higher: 186 to 190 °C for the first, 128 to 130 °C for the second.

First: CCC(=O)CCC1(C(N)=O)c2ccccc2-c2ccccc21
Second: O=C(c1ccccc1)c1ccc([N+](=O)[O-])c(CO)c1
The melting point of the first is higher: 133 to 135 °C for the first, 71.3 °C for the second.

First: COC(=O)C1(C)CCCC2(C)c3c(OC)cc(C(C)C)c(OC)c3CCC12 (centres undefined)
Second: COc1cc(OC)c(-c2nc(N3CC(C)NC(C)C3)c3c(C)c(C#N)sc3n2)cc1OC (centres undefined)
The melting point of the first is lower: 133 to 135 °C for the first, 186 to 188 °C for the second.

First: CCCn1cc(Cc2ccc(C(=O)O)cc2OC)c2cc(CC3CCN(CC)C3=O)ccc21 (centres undefined)
Second: COc1cc(F)c(CN(C=O)CCc2ccc(O)cc2)cc1O
The melting point of the first is lower: 94 to 99 °C for the first, 153 to 168 °C for the second.

First: O=C(O)c1ccccc1OCCN1CCC(c2c[nH]c3ccccc23)CC1
Second: N#Cc1c[nH]c2cccc(OCC3CO3)c12 (centres undefined)
The melting point of the first is higher: 230 °C for the first, 116 to 120 °C for the second.

First: CC(C)(C)C1C=C(Cn2nc(-c3ccccc3-c3nn(CC4=CC(C(C)(C)C)C(O)(C(C)(C)C)C=C4)c(=O)o3)oc2=O)C=CC1(O)C(C)(C)C (centres undefined)
Second: CCc1nn(-c2ccc3cc(-c4ccc(-n5cnnc5)cc4)c(=O)oc3c2)nc1C
The melting point of the first is lower: 220 °C for the first, 321 to 323 °C for the second.

Compared with `CCOC(=O)c1cc2c3c(ccc2[nH]1)OC[C@H](CO)O3`, `CCOC(=O)c1[nH]c(C)c(CC(C)C)c1C` is lower in melting point: 152 to 153 °C for the first, 115 to 117 °C for the second.

First: CNC(=O)[C@H]1S[C@@H](n2cnc3c(NC)nc(Cl)nc32)[C@H](O)[C@@H]1O
Second: Cc1cc(C)c2nn3c(SCc4ccccc4)nc(N)nc3c2n1
The melting point of the first is lower: 130 to 141 °C for the first, 263 to 265 °C for the second.

First: ON=C1CN2[C@H]3CC[C@@H]2[C@@H]1[C@@H](c1ccc(Cl)c(Cl)c1)C3
Second: CC1(C)C(=O)Nc2cc(-c3nc4ccc(Cl)cc4[nH]3)ccc21
The melting point of the first is lower: 45 to 52 °C for the first, 287 to 289 °C for the second.

First: CCC(C(=O)O)c1ccc2c(c1)Cc1ccccc1S2 (centres undefined)
Second: COc1ccc(NC(=O)c2ccc(C(C)(C)CN)cc2)cc1
The melting point of the first is lower: 74 to 77 °C for the first, 139 to 140 °C for the second.

Compared with `COCCNc1nc(C)nc2c1nnn2-c1ccc(C(C)C)cc1Br`, `CC(C)(C)NCC(O)COc1ccc(C(N)=O)cc1I` (centres undefined) is lower in melting point: 134 to 136 °C for the first, 111 to 114 °C for the second.

Work on `Cc1ccc(S(=O)(=O)n2cncn2)cc1` yielded a melting point of 105 to 107 °C.
